≈ marks a conversion by molar mass, not a printed value. Where two headings read alike, the source gives them in different places. Each block holds one compound with its values, some of them ahead of it.
What was measured:
[1] = test system: platelet aggregation induced by arachidonic acid (AA); assay: Antiplatelet assay, arachidonic acid-induced aggregation; type: cell-based, rabbit; conditions: for IC50 / Percent aggregation, AA: AA 100 μM
Method: (§1) c. Antiplatelet assay. Blood, collected from the marginal ear vein of rabbits was mixed with EDTA to a final concentration of 6 mM and centrifuged at 90 g for 10 mm at room temperature to obtain platelet-rich plasma. The latter was further centrifuged at 500 g for 10 mm and the platelets were washed with Tyrode's solution without EDTA. After centrifugation at the same conditions, the platelets were suspended in Tyrode's solution with the following compositions (mM): NaCl (136.8), KCl (2.8), NaNCO3(11.9), MgCl2(1.1), NaH2PO4(0.33), CaCl2(1.0), and glucose (11.2). Platelet numbers were determined with a Coulter Counter (Model ZM) and adjusted to 4.5×10^8 platelets/ml.
(§2) Aggregation was measured by the turbidimetric method [O'brien, J. R. J. Clin. Pathol. 1962, 15,452] with a dual-channel Lumi aggregometer (Model 1020, Payton, Canada). All glass ware was siliconized. Test compounds were added one minute before the addition of the aggregation inducer and the platelet suspension was stirred at 900 rpm. The percentage of aggregation was calculated as previously described [Teng, C. M.; Chen, W. Y.; Ko, W. C.; Ouyang, C. Biochem. Biophys. Acta. 1987, 924, 375].

[2] = test system: P-gp-expressing epidermoid carcinoma of the nasopharynx (KB-VIN); assay: In vitro cytotoxicity, KB-VIN; conditions: Homo sapiens, KBVIN; for IC50: 96 h, read-out: ED50 KB-VIN
[3] = test system: bone (HOS); assay: In vitro cytotoxicity, HOS; conditions: Homo sapiens; for IC50: 96 h, read-out: ED50 HOS; for inhibition at 20 µg/mL: read-out: Inhibition at highest test concentration (in brackets), HOS
[4] = test system: epidermoid carcinoma of the nasopharynx (KB); assay: In vitro cytotoxicity, KB; conditions: Homo sapiens; for IC50: 96 h, read-out: ED50 KB; for inhibition at 20 µg/mL: read-out: Inhibition at highest test concentration (in brackets), KB
[5] = test system: prostate cancer (PC3); assay: In vitro cytotoxicity, PC3; conditions: Homo sapiens; for IC50: 96 h, read-out: ED50 PC3; for inhibition at 20 µg/mL: read-out: Inhibition at highest test concentration (in brackets), PC3
[6] = test system: bovine brain tubulin; assay: Tubulin polymerization assay (antimicrotubule assay); conditions: read-out: ITP (inhibition of tubulin polymerization) IC50; tubulin […] (12 μM), 26° C., 20 min
[7] = test system: melanoma (SKMEL-2); assay: In vitro cytotoxicity, SKMEL-2; conditions: for IC50 / inhibition at 20 µg/mL: Homo sapiens; for IC50: SK-MEL-2, 96 h, read-out: ED50 SKMEL-2; for Inhibition value of plateau-dose response (in brackets), SKMEL-2: inhibition plateaus over broad dose range; for inhibition at 20 µg/mL: SK-MEL-2, read-out: Inhibition at highest test concentration (in brackets), SKMEL-2
[8] = test system: breast cancer (MCF-7); assay: In vitro cytotoxicity, MCF-7; conditions: Homo sapiens; for IC50: MCF7, 96 h, read-out: ED50 MCF-7; for inhibition at 20 µg/mL: MCF7, read-out: Inhibition at highest test concentration (in brackets), MCF-7
[9] = test system: human ovarian cancer (1A9); assay: In vitro cytotoxicity, 1A9; conditions: 96 h, read-out: ED50 1A9
[10] = test system: ileocecal carcinoma (HCT-8); assay: In vitro cytotoxicity, HCT-8; conditions: Homo sapiens; for IC50: HCT-8, 96 h, read-out: ED50 HCT-8; for inhibition at 20 µg/mL: HCT-8, read-out: Inhibition at highest test concentration (in brackets), HCT-8
[11] = test system: lung carcinoma (A-549); assay: In vitro cytotoxicity, A-549; conditions: Homo sapiens; for IC50: A549, 96 h, read-out: ED50 A-549; for inhibition at 20 µg/mL: A549, read-out: Inhibition at highest test concentration (in brackets), A-549
[12] = test system: platelet aggregation induced by collagen; assay: Antiplatelet assay, collagen-induced aggregation; type: cell-based, rabbit
Method: as §1, §2

[13] = test system: platelet aggregation induced by platelet-activating factor (PAF); assay: Antiplatelet assay, PAF-induced aggregation; type: cell-based, rabbit; conditions: for Percent aggregation, PAF: PAF 2 ng/ml
Method: as §1, §2

[14] = test system: platelet aggregation induced by thrombin; assay: Antiplatelet assay, thrombin-induced aggregation; type: cell-based, rabbit; conditions: for Percent aggregation, thrombin: thrombin 0.1 U/ml
Method: as §1, §2

[15] = 37° C., 1 min preincubation, read-out: IC50, platelet aggregation induced by arachidonic acid (in vitro) (Table 6)
[16] = Oryctolagus cuniculus, Platelet, 37° C., 1 min preincubation, read-out: IC50, platelet aggregation induced by arachidonic acid (in vitro) (Table 6)

Compound: 4-Ethoxycarbonylbutoxy-2-phenylquinazoline [Compound 73]
- IC50 [1, 15]: 173 µM

- IC50 [6]: > 40 µM
Compound: COc1ccccc1C1NC(=O)c2ccccc2N1 (racemic) [Compound 60, 2,3-Dihydro-2-(2′-methoxyphenyl)-4-quinazolinone]
- IC50 [2]: 10.2 µg/mL (≈ 40.1 µM)
- IC50 [3]: > 20 µg/mL
- inhibition at 20 µg/mL [3]: 38%
- IC50 [4]: > 20 µg/mL
- inhibition at 20 µg/mL [4]: 32%
- IC50 [5]: > 20 µg/mL
- inhibition at 20 µg/mL [5]: 30%
- IC50 [7]: < 20 µg/mL
- Inhibition value of plateau-dose response (in brackets), SKMEL-2 [7]: 52%
- IC50 [8]: > 20 µg/mL
- inhibition at 20 µg/mL [8]: 48%
- IC50 [9]: 14.7 µg/mL (≈ 57.8 µM)
- IC50 [10]: > 20 µg/mL
- inhibition at 20 µg/mL [10]: 21%
- IC50 [11]: > 20 µg/mL
- inhibition at 20 µg/mL [11]: 44%

- IC50 [6]: > 40 µM
Compound: COc1ccc(C2NC(=O)c3ccccc3N2)cc1 (racemic) [Compound 62, 2,3-Dihydro-2-(4′-methoxyphenyl)-4-quinazolinone]
- IC50 [2]: > 20 µg/mL
- inhibition at 20 µg/mL ([2]; read-out: Inhibition at highest test concentration (in brackets), KB-VIN): 39%
- IC50 [3]: > 20 µg/mL
- inhibition at 20 µg/mL [3]: 13%
- IC50 [4]: > 20 µg/mL
- inhibition at 20 µg/mL [4]: 14%
- IC50 [5]: > 20 µg/mL
- inhibition at 20 µg/mL [5]: 14%
- IC50 [7]: > 20 µg/mL
- inhibition at 20 µg/mL [7]: 23%
- IC50 [8]: > 20 µg/mL
- inhibition at 20 µg/mL [8]: 44%
- IC50 [9]: 20 µg/mL (≈ 78.7 µM)
- IC50 [10]: > 20 µg/mL
- inhibition at 20 µg/mL [10]: 19%
- IC50 [11]: > 20 µg/mL
- inhibition at 20 µg/mL [11]: 34%

- IC50 [6]: > 40 µM
Compound: COc1cccc(C2NC(=O)c3ccccc3N2)c1OC (racemic) [Compound 63, 2,3-Dihydro-2-(2′,3′-dimethoxyphenyl)-4-quinazolinone]
- IC50 [2]: 8.6 µg/mL (≈ 30.2 µM)
- IC50 [3]: > 20 µg/mL
- inhibition at 20 µg/mL [3]: 34%
- IC50 [4]: > 20 µg/mL
- inhibition at 20 µg/mL [4]: 41%
- IC50 [5]: > 20 µg/mL
- inhibition at 20 µg/mL [5]: 20%
- IC50 [7]: < 20 µg/mL
- Inhibition value of plateau-dose response (in brackets), SKMEL-2 [7]: 53%
- IC50 [8]: > 20 µg/mL
- inhibition at 20 µg/mL [8]: 40%
- IC50 [9]: 11.4 µg/mL (≈ 40.1 µM)
- IC50 [10]: > 20 µg/mL
- inhibition at 20 µg/mL [10]: 39%
- IC50 [11]: > 20 µg/mL
- inhibition at 20 µg/mL [11]: 39%

- IC50 [6]: > 40 µM
Compound: COc1ccc(C2NC(=O)c3ccccc3N2)c(OC)c1 (racemic) [Compound 64, 2,3-Dihydro-2-(2′,4′-dimethoxyphenyl)-4-quinazolinone]
- IC50 [2]: 7.6 µg/mL (≈ 26.7 µM)
- IC50 [3]: > 20 µg/mL
- inhibition at 20 µg/mL [3]: 40%
- IC50 [4]: > 20 µg/mL
- inhibition at 20 µg/mL [4]: 43%
- IC50 [5]: > 20 µg/mL
- inhibition at 20 µg/mL [5]: 28%
- IC50 [7]: > 20 µg/mL
- inhibition at 20 µg/mL [7]: 37%
- IC50 [8]: > 20 µg/mL
- inhibition at 20 µg/mL [8]: 44%
- IC50 [9]: 12.5 µg/mL (≈ 44 µM)
- IC50 [10]: > 20 µg/mL
- inhibition at 20 µg/mL [10]: 29%
- IC50 [11]: > 20 µg/mL
- inhibition at 20 µg/mL [11]: 43%

- IC50 [6]: > 40 µM
Compound: COc1ccc(C2NC(=O)c3ccccc3N2)cc1OC (racemic) [Compound 66, 2,3-Dihydro-2-(3′,4′-dimethoxyphenyl)-4-quinazolinone]
- IC50 [2]: 16 µg/mL (≈ 56.3 µM)
- IC50 [3]: > 20 µg/mL
- inhibition at 20 µg/mL [3]: 24%
- IC50 [4]: > 20 µg/mL
- inhibition at 20 µg/mL [4]: 28%
- IC50 [5]: > 20 µg/mL
- inhibition at 20 µg/mL [5]: 30%
- IC50 [7]: > 20 µg/mL
- inhibition at 20 µg/mL [7]: 24%
- IC50 [8]: 20 µg/mL (≈ 70.3 µM)
- IC50 [9]: 14.6 µg/mL (≈ 51.4 µM)
- IC50 [10]: > 20 µg/mL
- inhibition at 20 µg/mL [10]: 25%
- IC50 [11]: > 20 µg/mL
- inhibition at 20 µg/mL [11]: 41%

- IC50 [1, 16]: 20 µM
Compound: CC(=O)Oc1ccccc1C(=O)O [Aspirin]

- IC50 ([12]; Oryctolagus cuniculus, Platelet, collagen 10 μg/ml, read-out: IC50, collagen-induced platelet aggregation (Table 5)): 8.47 µM
- IC50 [1, 16]: 7.2 µM
- IC50 ([1]; Oryctolagus cuniculus, Platelet, read-out: IC50, AA-induced platelet aggregation (Table 5)): 7.2 µM
Compound: COc1nc(-c2ccccc2)nc2ccccc12 [Compound 69, 4-Methoxy-2-phenylquinazoline]
- Inhibition of collagen-induced platelet aggregation in words ([12]; Table 5): relatively stronger inhibitors
- Percent aggregation, collagen ([12]; compound 0.2 μg/ml, collagen 10 μg/ml): 88.4 ± 1.9(4) %
- Percent aggregation, collagen ([12]; compound 0.5 μg/ml, collagen 10 μg/ml): 76.2 ± 3.7(4) %
- Percent aggregation, collagen ([12]; compound 1 μg/ml, collagen 10 μg/ml): 52.6 ± 7.5(4) %
- Percent aggregation, collagen ([12]; compound 2 μg/ml, collagen 10 μg/ml): 43.0 ± 6.4(4) %
- Percent aggregation, collagen ([12]; compound 5 μg/ml, collagen 10 μg/ml): 31.5 ± 6.4(4) %
- Percent aggregation, collagen ([12]; compound 10 μg/ml, collagen 10 μg/ml): 1.1 ± 0.9(4) %
- Percent aggregation, collagen ([12]; compound 20 μg/ml, collagen 10 μg/ml): 0.0 ± 0.0(4) %
- Percent aggregation, collagen ([12]; compound 100 μg/ml, collagen 10 μg/ml): 0.0 ± 0.0(4) %
- Inhibition of PAF-induced platelet aggregation in words ([13]; Table 5): poor inhibitors
- Percent aggregation, PAF ([13]; compound 20 μg/ml): 87.9 ± 1.8(4) %
- Percent aggregation, PAF ([13]; compound 50 μg/ml): 38.1 ± 8.3(4) %
- Percent aggregation, PAF ([13]; compound 100 μg/ml): 2.1 ± 1.8(4) %
- Inhibition of thrombin-induced platelet aggregation in words ([14]; Table 5): poor inhibitors
- Percent aggregation, thrombin ([14]; compound 20 μg/ml): 88.1 ± 0.8(3) %
- Percent aggregation, thrombin ([14]; compound 50 μg/ml): 13.3 ± 5.3(3) %
- Percent aggregation, thrombin ([14]; compound 100 μg/ml, 37° C., 1 min preincubation): 2.8 ± 2.3(3) %
- Inhibition of AA-induced platelet aggregation in words ([1]; Table 5): relatively stronger inhibitors
- Percent aggregation, AA ([1]; compound 0.5 μg/ml): 86.0 ± 1.2(4) %
- Percent aggregation, AA ([1]; compound 1 μg/ml): 65.0 ± 8.1(4) %
- Percent aggregation, AA ([1]; compound 2 μg/ml): 35.3 ± 14.9(4) %
- Percent aggregation, AA ([1]; compound 5 μg/ml): 15.0 ± 11.8(4) %
- Percent aggregation, AA ([1]; compound 10 μg/ml): 0.0 ± 0.0(4) %
- Percent aggregation, AA ([1]; compound 100 μg/ml): 0.0 ± 0.0(4) %

- IC50 [1, 16]: 26.9 µM
Compound: CCOC(=O)COc1nc(-c2ccccc2)nc2ccccc12 [Compound 71, 4-Ethoxycarbonylmethoxy-2-phenylquinazoline]

- IC50 [1, 16]: 30.7 µM
Compound: CCOC(=O)CCCOc1nc(-c2ccccc2)nc2ccccc12 [Compound 72, 4-Ethoxycarbonylpropoxy-2-phenylquinazoline]

- IC50 [1, 16]: 214 µM
Compound: CCOc1nc(-c2ccccc2OC)nc2ccccc12 [Compound 74, 4-Ethoxy-2-(2′-methoxyphenyl)quinazoline]

- IC50 [1, 16]: 69.3 µM
Compound: CCOc1nc(-c2cccc(OC)c2)nc2ccccc12 [Compound 75, 4-Ethoxy-2-(3′-methoxyphenyl)quinazoline]

- IC50 [1, 16]: 5.36 µM
Compound: CCOc1nc(-c2ccc(OC)cc2)nc2ccccc12 [Compound 76, 4-Ethoxy-2-(4′-methoxyphenyl)quinazoline]

- IC50 [1, 16]: 183 µM
Compound: Cn1c(-c2ccccc2)nc2ccccc2c1=O [Compound 77, N^3-methyl-2-phenyl-4-quinazolinone]

- IC50 [1, 16]: 184 µM
Compound: CCn1c(-c2ccccc2)nc2ccccc2c1=O [Compound 78, N^3-Ethyl-2-phenyl-4-quinazolinone]

- IC50 [1, 16]: 0.25 µM
Compound: COc1ccc2c(c1)c(CC(=O)O)c(C)n2C(=O)c1ccc(Cl)cc1 [Indomethacin]

- IC50 [1, 15]: > 270 µM
Compound: N^3-Ethoxycarbonylmethoxy-2-phenyl-4-quinazolinone [Compound 79]

— patent US6479499B1
